Data reported in US10501498B2 (BGI SHENZHEN, priority 2014, dated 2019).
Entries after “also recorded” stand apart in the source; their conditions may differ.

System: HVA calcium channel
Format: cell-based, rat

KCCTMSVCQPPPVCTCCA [κ-CPTx-btl01]
current after loading: −459.93 pA
inhibition of HVA calcium channel currents compared with Nifedipine (positive control): inhibitory effect is higher than that of Nifedipine; also recorded: higher inhibition rate on HVA calcium channel currents than Nifedipine
inhibition rate (10 µM): 52.17%
